Assay results as given in patent US12605350B2, “Composition for preventing, ameliorating, or treating disease caused by nitration of tyrosine in proteins comprising tyrosine as effective component” (INDUSTRY-ACADEMIC COOPERATION FOUNDATION GYEONGSANG …, priority 2020, dated 2026).

Tests used:
Format in all cases: in vivo, mouse
[1] = test system: chronic immobilization stress group (STR); assay: corticosterone amount in plasma (ELISA), chronic immobilization stress; details: tyrosine diet (181.2 mg/kg) compared to normal diet, p<0.05
Description: (§1) Each of the blood and PFC sample was obtained from a mouse anesthetized with CO2 gas. Specifically, mouse blood was collected between 9 AM and 11 AM and stored in a K3EDTA-coated vacuum container. Plasma was obtained by centrifuge for 10 minutes at 4° C., 500×g. PFC sample was weighed first, and, after lysis of the tissues by using Bullet homogenizer, subjected to centrifuge for 20 minutes at 4° C., 12,000 rpm. Thus-obtained plasma and tissue lysate were kept at −80° C. until use. After that, the animal was sacrificed, and a change in corticosterone amount in plasma was examined. ROS/RNS in plasma and PFC was also examined. The corticosterone amount was examined using an ELISA kit (Cayman) by following the manufacturer's protocol, and ROS/RNS was also examined using an ROS/RNS assay kit (Cell Biolabs, San Diego, CA, USA) by following the manufacturer's protocol. The animal models were divided into two groups (i.e., normal group and stress group). The animal of stress group was individually brought by force to a restrainer for 2 hours every day (i.e., between 2 PM and 4 PM) so that it was applied with chronic immobilization stress for 15 days. Change in bodyweight and food intake amount were measured every other day. The normal group and stress group were divided again into a normal diet group and a tyrosine-supplemented diet group (181.2 mg/kg), and then fed.

[2] = test system: chronic immobilization stress group (STR); assay: ammonia amount in PFC (Ammonia assay kit); details: stress group fed tyrosine-diet
Description: PFC tissues were weighed at a temperature of not more than −20° C. to prevent them from melting. To a 1.5 ml tube, RIPA (proteinase inhibitor cocktail, containing PIC) in an amount of 100 μl per 10 mg of the tissues and suitable number of glass beads were added, and then the tissues were lysed twice for 30 seconds by using a bullet blender. Lysed tissues were spun down, transferred to a fresh 1.5 ml tube, and then subjected to tissue homogenization for 1 min by ultrasonication. After centrifuged for 15 minutes at 12,000 rpm, supernatant was transferred to a fresh 1.5 ml tube and kept at −80° C. until use. […]
To 100 μl of the ammonia assay reagent provided in the Ammonia assay kit, 10 μl of the sample diluted by a factor 2 using PBS buffer solution (i.e., corresponding to 5 μg tissues) were added and incubated for 5 minutes at room temperature. […] After 5 minutes, absorbance was measured at 340 nm by using a microreader (Ainitial).
After adding 10 μl of glutamate dehydrogenase solution and incubation for 5 minutes at room temperature, absorbance was measured at 340 nm by using a microreader (Afinal).
DA340 nm (Afinal-Ainitial) was then calculated, and DA340 nm of the blank control or DA340 nm of buffer solution blank control was excluded by subtraction for the reference and sample, respectively. […]

[3] = test system: chronic immobilization stress group (STR); assay: ROS/RNS in plasma and PFC, chronic immobilization stress; details: tyrosine diet (181.2 mg/kg) compared to normal diet
Description: as §1

IL-1β = IL-1β gene expression in kidney tissues (quantitative real-time PCR), renal ischemia and reperfusion; details: L-tyrosine 100 mg/kg oral once a day for 4 days, 24 hours after ischemia and reperfusion
Description: (§2) C57BL/6 male mouse (23 to 25 g, KOATECH, South Korea) was allowed to have free access to diets and water in sterile breeding room with constant temperature and humidity. The animals were divided into 3 test groups, i.e., 1) Control group (Sham), 2) Renal ischemia having treatment with prepared solvent and induced reperfusion group (CMC+IR), and 3) Renal ischemia having treatment with L-tyrosine and induced reperfusion group (L-Tyr+IR).
(§3) L-Tyrosine (100 mg/kg) was suspended in 0.5% CMC (carboxymethyl cellulose). The animal was orally administered, once a day for 4 days, with L-tyrosine or the prepared solvent CMC. Thirty minutes after the oral administration on Day 4, renal ischemia was caused. Specifically, the animal abdomen was cut and renal pedicles at both sides were clamped using a Muller atraumatic vascular clamp to cause renal ischemia. After 25 minutes of blood ischemia, the clamp was removed followed by reperfusion. The control group (Sham) received the same operational procedures as above except the ischemia using clamp. […]
(§4) According to Trizol method, total RNA was extracted from kidney tissues, and cDNA was synthesized by using Revert Aid Reverse Transcription System (ThermoFisher). Quantitative PCR was carried out with CFX Connect Real-Time PCR system (Bio-Rad) by using iQ SYBR Green Super mix (Bio-Rad). […]

IL-6 = IL-6 gene expression in kidney tissues (quantitative real-time PCR), renal ischemia and reperfusion; details: L-tyrosine 100 mg/kg oral once a day for 4 days, 24 hours after ischemia and reperfusion
Description: as §2, §3, §4

Row | SMILES | corticosterone amount in plasma [1] | ammonia amount in PFC [2] | ROS/RNS in PFC tissues [3] | ROS/RNS in plasma [3] | gene expression of IL-1β in kidney tissues (IL-1β) | gene expression of IL-6 in kidney tissues (IL-6)
1 | N[C@@H](Cc1ccc(O)cc1)C(=O)O [tyrosine] | statistically significant decrease in corticosterone amount | reduced to a similar level to the normal group | statistically significant decrease in ROS/RNS | statistically significant decrease in ROS/RNS |  | 
2 | N[C@@H](Cc1ccc(O)cc1)C(=O)O [L-tyrosine] |  |  |  |  | suppressed | suppressed
